Structures are written as SMILES. Activity calls are given as the source filed them. The calls are words filed in the database; no cut-off is given here.

Here are results for three compounds from ChEMBL document CHEMBL2390825, “A bioassay-driven discovery of an unexpected selenophene and its cytotoxicity” (Bioorg Med Chem Lett, 2013).

Experiment [1] has as its system 518A2. Description: Induction of apoptosis in human 518A2 cells assessed as viable cells at 50 uM after 6 hrs by Annexin V FITC and propidium iodide staining by FACS analysis. The note with it: 518A2, 6 h, read-out: Activity. The experiment is classed as functional. Background: In flow cytometry, cells or beads pass a laser one at a time.
The test system of experiment [2] is 518A2. Description: Induction of apoptosis in human 518A2 cells assessed as total apoptotic cells at 50 uM after 6 hrs by Annexin V FITC and propidium iodide staining by FACS analysis. The experiment is classed as functional.
For experiment [3], the system named is 518A2. Nature of the experiment: Induction of apoptosis in human 518A2 cells assessed as necrotic cells at 50 uM after 6 hrs by Annexin V FITC and propidium iodide staining by FACS analysis. The experiment is classed as functional.
For experiment [4], the system named is 518A2. Description: Induction of apoptosis in human 518A2 cells assessed as formation of DNA ladder at 50 uM after 24 hrs using AO/PI dye by fluorescence microscopic analysis. The experiment is classed as functional, cell-based.
Experiment [5] in a line: Cell cycle arrest in human 518A2 cells assessed as accumulation at S phase at 50 uM after 24 hrs by propidium iodide staining (reference value: 44.643%). The experiment is classed as functional, cell-based.
The nature of experiment [6]: Cell cycle arrest in human 518A2 cells assessed as accumulation at G2/M phase at 50 uM after 24 hrs by propidium iodide staining (reference value: 8.694%). In kind it is functional, cell-based.
Experiment [7] in a line: Cell cycle arrest in human 518A2 cells assessed as accumulation at G1/G0 phase at 50 uM after 24 hrs by propidium iodide staining (reference value: 46.662%). In kind it is functional, cell-based.
Experiment [8] concerns A549. Description: Cytotoxicity against human A549 cells after 96 hrs by SRB assay. The experiment is classed as functional, cell-based. (In SRB staining, fixed cells bind dye roughly in proportion to their protein.)
Experiment [9] deals with NIH3T3. Description: Cytotoxicity against mouse NIH/3T3 cells after 96 hrs by SRB assay. The experiment is classed as cell-based.
Experiment [10] deals with HT-29. Description: Cytotoxicity against human HT-29 cells after 96 hrs by SRB assay. The experiment is classed as functional, cell-based.
In experiment [11] the test system is 8505C. Description: Cytotoxicity against human 8505C cells after 96 hrs by SRB assay. In kind it is functional, cell-based.
Experiment [12] has as its system A2780. Description: Cytotoxicity against human A2780 cells after 96 hrs by SRB assay. In kind it is functional, cell-based.
Experiment [13] concerns MCF7. Description: Cytotoxicity against human MCF7 cells after 96 hrs by SRB assay. In kind it is functional, cell-based.
Experiment [14] is described as follows: Cytotoxicity against human 518A2 cells after 96 hrs by SRB assay. In kind it is functional, cell-based.
For experiment [15], the system named is 518A2. Description: Induction of apoptosis in human 518A2 cells assessed as viable cells at 30 uM after 6 hrs by Annexin V FITC and propidium iodide staining by FACS analysis. The experiment is classed as functional. The settings on record: 518A2, 6 h, read-out: Activity.
Experiment [16] has as its system 518A2. Nature of the experiment: Induction of apoptosis in human 518A2 cells assessed as total apoptotic cells at 30 uM after 6 hrs by Annexin V FITC and propidium iodide staining by FACS analysis. In kind it is functional.
The subject of experiment [17] is 518A2. Nature of the experiment: Induction of apoptosis in human 518A2 cells assessed as necrotic cells at 30 uM after 6 hrs by Annexin V FITC and propidium iodide staining by FACS analysis. In kind it is functional.
Experiment [18] can be described thus: Cell cycle arrest in human 518A2 cells assessed as accumulation at S phase at 30 uM after 24 hrs by propidium iodide staining (reference value: 44.643%). In kind it is functional, cell-based.
Experiment [19] can be described thus: Cell cycle arrest in human 518A2 cells assessed as accumulation at G2/M phase at 30 uM after 24 hrs by propidium iodide staining (reference value: 8.694%). The experiment is classed as functional, cell-based.
Experiment [20] in a line: Cell cycle arrest in human 518A2 cells assessed as accumulation at G1/G0 phase at 30 uM after 24 hrs by propidium iodide staining (reference value: 46.662%). The experiment is classed as functional, cell-based.

For the compound `COC(=O)[C@@]1(C)CC[C@]2(C)CC[C@]3(C)c4c([se]c1c42)C(=O)[C@@H]1[C@@]2(C)CC[C@H](OC(C)=O)C(C)(C)[C@@H]2CC[C@]13C`, the viability at 50 µM in experiment [1] was -15%. In addition, the Activity was 13.2% in [2]; 1.8% in [3]; 8% in [5]; -86% in experiment [6]; 9% in [7]. In addition, the outcome in experiment [4] was Active. For the same compound, the IC50 in experiment [8] turned out to be 46.9 µmol; in [9], 46.1 µmol; in [10], 67.2 µmol; in experiment [11] it was 42.2 µmol; in experiment [12], 33.7 µmol; in experiment [13], 45.6 µmol. The same compound yielded an IC50 in [14] of 36.7 µmol.

As for `COC(=O)[C@@]1(C)CC[C@]2(C)CC[C@]3(C)C(=CC(=O)[C@@H]4[C@@]5(C)CC[C@H](OC(C)=O)C(C)(C)[C@@H]5CC[C@]43C)[C@@H]2C1`, in experiment [1], the viability at 50 µM is -19.3%. The Activity is 16.8% in experiment [2]; 2.5% in experiment [3]; 4% in experiment [5]; -7% in [6]; -2% in [7]. For the same compound, the IC50 worked out at 42.6 µmol in experiment [8]; 101.4 µmol in [9]; 77.4 µmol in experiment [10]; 116.4 µmol in experiment [11]; 40.5 µmol in experiment [12]; 51.6 µmol in [13]. The IC50 in [14] was determined as 26.1 µmol.

Take `COC(=O)[C@@]1(C)CC[C@]2(C)CC[C@]3(C)[C@@]4(C(=O)OC1=C24)C(=O)[C@@H]1[C@@]2(C)CC[C@H](OC(C)=O)C(C)(C)[C@@H]2CC[C@]13C`: in experiment [15], the viability at 30 µM is -4.3%. Moreover, the Activity in experiment [16] was 3.9%; in experiment [17], 0.5%; in experiment [18], -8%; in experiment [19], -15%; in [20], 11%. Besides, the IC50 in experiment [8] is 15 µmol; in experiment [9], 38.1 µmol; in experiment [10] it was 58.7 µmol; in experiment [11], 73.2 µmol; in [12], 19.7 µmol; in experiment [13], 33.5 µmol. The compound also had an IC50 in experiment [14] of 14.7 µmol.
